Source: ChEMBL document CHEMBL1201862, “PubChem BioAssay data set” (2004)
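48-hour exposure; five concentrations; linearly interpolated endpoints. GI50: concentration for 50% inhibition of growth.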 The source made the active and inactive calls. Cut-off read from the data, not from the text of the source: active = GI50 up to about 1.1 µM and inactive = higher.

Key:
Assay in all cases: DTP human tumour cell line panel, 48 h
DMS-273 = tested on: DMS-273
HOP-62 = tested on: HOP-62
HOP-92 = tested on: HOP-92
LOX IMVI = tested on: LOX IMVI
NCI-H460 = tested on: NCI-H460
NCI/ADR-RES = tested on: NCI/ADR-RES
OVCAR-4 = tested on: OVCAR-4
OVCAR-8 = tested on: OVCAR-8
RPMI-8226 = tested on: RPMI-8226
SN12C = tested on: SN12C
SW-620 = tested on: SW-620
XF498 = tested on: XF498
DMS-114 = tested on: DMS-114
EKVX = tested on: EKVX
SK-MEL-2 = tested on: SK-MEL-2
SR = tested on: SR
BT-549 = tested on: BT-549
MDA-MB-231 = tested on: MDA-MB-231
MDA-MB-435 = tested on: MDA-MB-435
TK-10 = tested on: TK-10

Structure (SMILES) | GI50 (DMS-273) | GI50 (HOP-62) | GI50 (HOP-92) | GI50 (LOX IMVI) | GI50 (NCI-H460) | GI50 (NCI/ADR-RES) | GI50 (OVCAR-4) | GI50 (OVCAR-8) | GI50 (RPMI-8226) | GI50 (SN12C) | GI50 (SW-620) | GI50 (XF498) | GI50 (DMS-114) | GI50 (EKVX) | GI50 (SK-MEL-2) | GI50 (SR) | GI50 (BT-549) | GI50 (MDA-MB-231) | GI50 (MDA-MB-435) | GI50 (TK-10)
Nc1ccn(C2OC(CO)C(O)C2O)c(=O)c1 (centres undefined) | 165 µM (inactive) | 136 µM (inactive) | 279 µM (inactive) | 143 µM (inactive) | 38.7 µM (inactive) | 180 µM (inactive) | 285 µM (inactive) | 137 µM (inactive) | 174 µM (inactive) | 108 µM (inactive) | 610 µM (inactive) | < 0.0625 µM (active) | – | – | – | – | – | – | – | –
O=C(O)C(Br)Cc1ccc2c(c1)OCO2 (centres undefined) | – | > 100 µM (inactive) | > 100 µM (inactive) | – | > 100 µM (inactive) | – | 88.7 µM (inactive) | – | > 100 µM (inactive) | > 100 µM (inactive) | > 100 µM (inactive) | 24 µM (inactive) | > 100 µM (inactive) | > 100 µM (inactive) | > 100 µM (inactive) | > 100 µM (inactive) | – | – | – | –
C/C(N)=N/OCc1nc(C)no1 | – | > 100 µM (inactive) | – | – | > 100 µM (inactive) | > 100 µM (inactive) | > 100 µM (inactive) | > 100 µM (inactive) | > 100 µM (inactive) | > 100 µM (inactive) | > 100 µM (inactive) | – | – | > 100 µM (inactive) | – | > 100 µM (inactive) | > 100 µM (inactive) | > 100 µM (inactive) | > 100 µM (inactive) | > 100 µM (inactive)
CC(=N/NC(=S)Nc1c(C)n(C)n(-c2ccccc2)c1=O)/C(C)=N\NC(=S)Nc1c(C)n(C)n(-c2ccccc2)c1=O | – | > 100 µM (inactive) | > 100 µM (inactive) | – | > 100 µM (inactive) | > 100 µM (inactive) | > 100 µM (inactive) | > 100 µM (inactive) | – | – | > 100 µM (inactive) | – | – | > 100 µM (inactive) | > 100 µM (inactive) | > 100 µM (inactive) | > 100 µM (inactive) | > 100 µM (inactive) | > 100 µM (inactive) | > 100 µM (inactive)
CC1=Nc2nc(Cl)cn2C(=O)C1(Cl)Cl | – | > 10 µM (inactive) | – | > 10 µM (inactive) | > 10 µM (inactive) | > 10 µM (inactive) | > 10 µM (inactive) | > 10 µM (inactive) | > 10 µM (inactive) | > 10 µM (inactive) | > 10 µM (inactive) | – | – | > 10 µM (inactive) | > 10 µM (inactive) | > 10 µM (inactive) | – | > 10 µM (inactive) | > 10 µM (inactive) | > 10 µM (inactive)
COc1ccc(-c2c3c(nc4[nH]c(=S)[nH]c(=S)c24)CCCC3)cc1OC | – | 19.6 µM (inactive) | – | 16.8 µM (inactive) | 18.5 µM (inactive) | 21.5 µM (inactive) | 36.6 µM (inactive) | 23.9 µM (inactive) | 21 µM (inactive) | 13.5 µM (inactive) | 35.8 µM (inactive) | – | – | 22.4 µM (inactive) | – | 27.9 µM (inactive) | 48.9 µM (inactive) | 18 µM (inactive) | 34.5 µM (inactive) | 17.6 µM (inactive)
O=C(O)c1c[nH]c2c(=O)[nH]cnc12 | – | > 100 µM (inactive) | > 100 µM (inactive) | > 100 µM (inactive) | – | – | – | > 100 µM (inactive) | > 100 µM (inactive) | > 100 µM (inactive) | > 100 µM (inactive) | – | > 100 µM (inactive) | > 100 µM (inactive) | > 100 µM (inactive) | > 100 µM (inactive) | – | – | – | > 100 µM (inactive)
COc1ccc(C(=C2C=CC=C2)c2ccc(OC)cc2)cc1 | – | 39.9 µM (inactive) | 27.8 µM (inactive) | 17.2 µM (inactive) | 32 µM (inactive) | 47.3 µM (inactive) | > 100 µM (inactive) | 44.5 µM (inactive) | 0.783 µM (active) | 37.1 µM (inactive) | 32.6 µM (inactive) | – | – | 41 µM (inactive) | 24.8 µM (inactive) | 25.9 µM (inactive) | > 100 µM (inactive) | 16.1 µM (inactive) | 35.8 µM (inactive) | 50.4 µM (inactive)
CN(C)/N=C(/CC(O)(C(F)(F)F)C(F)(F)F)c1ccc([N+](=O)[O-])cc1 | – | > 100 µM (inactive) | > 100 µM (inactive) | > 100 µM (inactive) | > 100 µM (inactive) | > 100 µM (inactive) | > 100 µM (inactive) | > 100 µM (inactive) | > 100 µM (inactive) | > 100 µM (inactive) | > 100 µM (inactive) | – | – | > 100 µM (inactive) | > 100 µM (inactive) | > 100 µM (inactive) | – | > 100 µM (inactive) | > 100 µM (inactive) | –
BrC(/C=N/Nc1nnc(-c2ccccc2)c(-c2ccccc2)n1)C(Br)c1ccccc1 (centres undefined) | 30.5 µM (inactive) | 20.6 µM (inactive) | 20.3 µM (inactive) | 41.5 µM (inactive) | 35.2 µM (inactive) | – | > 10 µM (inactive) | 38.5 µM (inactive) | 14.4 µM (inactive) | 48.8 µM (inactive) | 37.8 µM (inactive) | 25.3 µM (inactive) | 23.7 µM (inactive) | 29.9 µM (inactive) | 19.9 µM (inactive) | – | – | – | – | 35.8 µM (inactive)
COc1c2c(c3ccccc3c1O)C1C=CC2C1 (centres undefined) | 15.7 µM (inactive) | 16.1 µM (inactive) | – | 4.48 µM (inactive) | 18.5 µM (inactive) | – | 15.4 µM (inactive) | 13.7 µM (inactive) | > 100 µM (inactive) | 15.1 µM (inactive) | 14.2 µM (inactive) | 14.7 µM (inactive) | 4.95 µM (inactive) | 18.8 µM (inactive) | 17.3 µM (inactive) | 21 µM (inactive) | – | – | – | 22.3 µM (inactive)
CCOC(=O)C1=C(C)N(c2ccc(Cl)cc2)C2(O)C=CC(Nc3ccc(Cl)cc3)=C3C(=O)N(c4ccccc4)C(=O)C312 (centres undefined) | – | 1.63 µM (inactive) | 0.791 µM (active) | 1.67 µM (inactive) | 2.11 µM (inactive) | 2.75 µM (inactive) | 3.15 µM (inactive) | 3.64 µM (inactive) | 1.32 µM (inactive) | 2.45 µM (inactive) | 3.74 µM (inactive) | – | – | – | 2.58 µM (inactive) | 2.88 µM (inactive) | 1.54 µM (inactive) | 4.25 µM (inactive) | 1.78 µM (inactive) | 13.6 µM (inactive)
Oc1[nH]c(Nc2cccc(Br)c2)nc2ncnc1-2 | – | – | 52 µM (inactive) | > 100 µM (inactive) | > 100 µM (inactive) | > 100 µM (inactive) | 15.5 µM (inactive) | > 100 µM (inactive) | > 100 µM (inactive) | – | > 100 µM (inactive) | – | – | > 100 µM (inactive) | 23.6 µM (inactive) | 76.4 µM (inactive) | 82.8 µM (inactive) | 55.6 µM (inactive) | 93.5 µM (inactive) | 87.1 µM (inactive)
CC[N+]1(C)CCC(O)(c2ccccc2)C(C(=O)c2ccccc2)C1 (centres undefined) | 21.4 µM (inactive) | 22 µM (inactive) | 8.3 µM (inactive) | 15.4 µM (inactive) | 21.7 µM (inactive) | 29.6 µM (inactive) | 11.8 µM (inactive) | 25.8 µM (inactive) | 2 µM (inactive) | 11.6 µM (inactive) | 2.12 µM (inactive) | – | 20.2 µM (inactive) | 21.1 µM (inactive) | 18.7 µM (inactive) | 5.43 µM (inactive) | 9.02 µM (inactive) | 17.2 µM (inactive) | 17.9 µM (inactive) | 15.7 µM (inactive)
COc1ccc(C2=NN(C(=O)c3ccc(Cl)cc3)C(O)(c3cc(F)c(Cl)cc3Cl)C2)cc1 (centres undefined) | – | > 100 µM (inactive) | > 100 µM (inactive) | 77.8 µM (inactive) | 56.8 µM (inactive) | 48.3 µM (inactive) | 8.61 µM (inactive) | > 100 µM (inactive) | 22.9 µM (inactive) | 39.1 µM (inactive) | – | – | – | 6.04 µM (inactive) | 21.7 µM (inactive) | – | > 100 µM (inactive) | > 100 µM (inactive) | 18.6 µM (inactive) | > 100 µM (inactive)
CCOC(=O)C1(C(C)=O)OC(=O)c2cnccc21 (centres undefined) | – | – | > 100 µM (inactive) | > 100 µM (inactive) | > 100 µM (inactive) | > 100 µM (inactive) | – | > 100 µM (inactive) | > 100 µM (inactive) | > 100 µM (inactive) | > 100 µM (inactive) | – | – | > 100 µM (inactive) | > 100 µM (inactive) | > 100 µM (inactive) | > 100 µM (inactive) | > 100 µM (inactive) | > 100 µM (inactive) | –
COc1ccc([C@@H]2ON(C)[C@H]3CN(C)C(=O)[C@@H]23)cc1 | – | > 100 µM (inactive) | > 100 µM (inactive) | > 100 µM (inactive) | > 100 µM (inactive) | > 100 µM (inactive) | > 100 µM (inactive) | > 100 µM (inactive) | > 100 µM (inactive) | > 100 µM (inactive) | > 100 µM (inactive) | – | – | – | > 100 µM (inactive) | > 100 µM (inactive) | – | > 100 µM (inactive) | – | > 100 µM (inactive)
CC12CCC(C(=O)OC1=O)C(C)(C)O2 (centres undefined) | – | > 100 µM (inactive) | > 100 µM (inactive) | > 100 µM (inactive) | > 100 µM (inactive) | > 100 µM (inactive) | > 100 µM (inactive) | > 100 µM (inactive) | > 100 µM (inactive) | > 100 µM (inactive) | > 100 µM (inactive) | – | – | > 100 µM (inactive) | > 100 µM (inactive) | – | > 100 µM (inactive) | – | > 100 µM (inactive) | > 100 µM (inactive)
